ChEMBL document CHEMBL3739292, “Synthesis and Biological Evaluation of Polar Functionalities Containing Nitrodihydroimidazooxazoles as Anti-TB Agents” (ACS Med Chem Lett, 2015)
In brackets after ≈: the same amount, converted by molar mass.

Tests used:
[1] = tested on: Mycobacterium tuberculosis; assay: Antimicrobial activity against nonreplicating Mycobacterium tuberculosis 18b by resazurin microtiter assay; type: functional
[2] = Cytotoxicity against human HepG2 cells after 24 hrs by MTT assay; type: cell-based
[3] = tested on: Mycobacterium tuberculosis; assay: Antimicrobial activity against Mycobacterium tuberculosis H37Rv ATCC 27294 after 7 days by resazurin microtiter assay; type: functional; conditions: H37Rv ATCC 27294, 168 h
[4] = Aqueous solubility of compound at pH7 for 4 hrs by HPLC analysis; type: physicochemical; conditions: aqueous solution, pH 7
[5] = Selectivity index, ratio of CC50 for human HepG2 cells to MIC for Mycobacterium tuberculosis H37Rv ATCC 27294; type: toxicity, cell-based; conditions: read-out: Selectivity Index
[6] = tested on: Mus musculus; assay: Toxicity in Balb/c mouse at 100 mg/kg, po; type: organism-based; conditions: in vivo
[7] = Tmax in Balb/c mouse at 5 mg/kg, po by LC-MS/MS analysis; type: ADME, organism-based; conditions: in vivo
[8] = Cmax in Balb/c mouse at 5 mg/kg, po by LC-MS/MS analysis; type: ADME, organism-based; set-up: dose 5 mg/kg, route oral; conditions: in vivo
[9] = Solubility of compound in simulated intestinal fluid at pH 6.8 after 4 hrs by HPLC analysis; type: ADME
[10] = Solubility of compound in phosphate buffer solution at pH 7.4 after 4 hrs by HPLC analysis; type: physicochemical
[11] = (§1) Half life in Balb/c mouse at 5 mg/kg, po by LC-MS/MS analysis; type: ADME, organism-based; conditions: Balb/c, in vivo
[12] = Solubility of compound in simulated gastric fluid at pH 1.2 after 4 hrs by HPLC analysis; type: ADME
[13] = (§2) AUC (0 to t) in Balb/c mouse at 5 mg/kg, po by LC-MS/MS analysis; type: ADME, organism-based; conditions: Balb/c, in vivo
[14] = tested on: Mycobacterium tuberculosis; assay: Antitubercular activity against Mycobacterium tuberculosis H37Rv infected in Balb/c mouse assessed as decrease in bacterial load at 25 mg/kg, po once daily for 5 days (reference value: 1.61 LogCFU ); type: functional
[15] = Clearance in Balb/c mouse at 5 mg/kg, po by LC-MS/MS analysis; type: ADME, organism-based; conditions: in vivo
[16] = tested on: Mus musculus; assay: Toxicity in Balb/c mouse at 25 mg/kg, po once daily for 5 days; type: organism-based; conditions: in vivo, 120 h
[17] = tested on: Mus musculus; assay: Volume of distribution in Balb/c mouse at 5 mg/kg, po by LC-MS/MS analysis; type: ADME, organism-based; conditions: in vivo
[18] = tested on: Mus musculus; assay: Toxicity in Balb/c mouse at 20 mg/kg, po; type: organism-based; conditions: in vivo
[19] = Metabolic stability in rat liver microsomes assessed as compound remaining after 30 mins by LC-MS/MS analysis; type: ADME; conditions: read-out: Stability
[20] = tested on: Mus musculus; assay: as §1; type: ADME, organism-based; conditions: in vivo
[21] = tested on: Mus musculus; assay: as §2; type: ADME, organism-based; conditions: in vivo

Row | Structure (SMILES) | MIC [1] | MIC90 [3] | solubility at 4 h [4] | other results
1 | C[C@]1(COc2ccc(N3CCC(Oc4ccc(OC(F)(F)F)cc4)CC3)cc2)Cn2cc([N+](=O)[O-])nc2O1 | 0.37 µg/mL (≈ 0.692 µM) | 0.007 µg/mL (≈ 0.0131 µM) |  | CC50 at 24 h [2]: 108 µg/mL (≈ 201 µM)
2 | C[C@]1(COc2ccc(NC(=O)Nc3ccccc3F)cc2)Cn2cc([N+](=O)[O-])nc2O1 |  | 1.67 µg/mL (≈ 3.91 µM) |  | 
3 | C[C@]1(COc2ccc(S(=O)(=O)N3CCC(c4ccccc4)CC3)cc2)Cn2cc([N+](=O)[O-])nc2O1 |  | 0.67 µg/mL (≈ 1.34 µM) |  | 
4 | CCOc1ccc(NC(=O)Nc2ccc(OC[C@@]3(C)Cn4cc([N+](=O)[O-])nc4O3)cc2)cc1 | 1 µg/mL (≈ 2.21 µM) | 0.5 µg/mL (≈ 1.1 µM) | 6.66 µg/mL (≈ 14.7 µM) | CC50 at 24 h [2]: > 20 µg/mL; selectivity ratio [5]: > 80
5 | CC(C)(C)OC(=O)N1CCN(c2ccc(OC[C@@]3(C)Cn4cc([N+](=O)[O-])nc4O3)cc2)CC1 |  | 6.67 µg/mL (≈ 14.5 µM) |  | 
6 | C[C@]1(COc2ccc(S(=O)(=O)N3CCCC3)cc2)Cn2cc([N+](=O)[O-])nc2O1 |  | 1 µg/mL (≈ 2.45 µM) |  | 
7 | C[C@]1(COc2ccc(NC(=O)Nc3ccc(C(F)(F)F)cc3)cc2)Cn2cc([N+](=O)[O-])nc2O1 |  | 0.5 µg/mL (≈ 1.05 µM) | < 1 µg/mL | 
8 | COc1ccc(S(=O)(=O)N2CCN(c3ccc(OC[C@@]4(C)Cn5cc([N+](=O)[O-])nc5O4)cc3)CC2)cc1 |  | 0.5 µg/mL (≈ 0.944 µM) | < 1 µg/mL | 
9 | C[C@]1(COc2ccc(S(=O)(=O)N3CCN(c4cccc(Cl)c4)CC3)cc2)Cn2cc([N+](=O)[O-])nc2O1 |  | 0.83 µg/mL (≈ 1.55 µM) |  | 
10 | CC(C)(C)c1ccc(NC(=O)Nc2ccc(OC[C@@]3(C)Cn4cc([N+](=O)[O-])nc4O3)cc2)cc1 |  | 0.09 µg/mL (≈ 0.193 µM) | < 1 µg/mL | 
11 | CCc1ccc(NC(=S)Nc2ccc(OC[C@@]3(C)Cn4cc([N+](=O)[O-])nc4O3)cc2)cc1 |  | 1 µg/mL (≈ 2.2 µM) |  | 
12 | C[C@]1(COc2ccc(NC(=O)Nc3ccc(Cl)cc3)cc2)Cn2cc([N+](=O)[O-])nc2O1 | 4 µg/mL (≈ 9.01 µM) | 0.25 µg/mL (≈ 0.563 µM) | 6.66 µg/mL (≈ 15 µM) | CC50 at 24 h [2]: > 20 µg/mL; selectivity ratio [5]: > 80
13 | CCOC(=O)N1CCN(S(=O)(=O)c2ccc(OC[C@@]3(C)Cn4cc([N+](=O)[O-])nc4O3)cc2)CC1 |  | 4 µg/mL (≈ 8.07 µM) |  | 
14 | C[C@]1(COc2ccc(NC(=S)Nc3ccc(OC(F)(F)F)cc3)cc2)Cn2cc([N+](=O)[O-])nc2O1 |  | 0.25 µg/mL (≈ 0.491 µM) | < 1 µg/mL | 
15 | C[C@]1(COc2ccc(N3CCN(S(=O)(=O)c4ccccc4)CC3)cc2)Cn2cc([N+](=O)[O-])nc2O1 |  | 1 µg/mL (≈ 2 µM) |  | 
16 | Cc1ccc(S(=O)(=O)N2CCN(c3ccc(OC[C@@]4(C)Cn5cc([N+](=O)[O-])nc5O4)cc3)CC2)cc1 |  | 0.5 µg/mL (≈ 0.974 µM) | < 1 µg/mL | 

Row | Structure (SMILES) | MIC [1] | MIC90 [3] | solubility at 4 h [4] | other results
17 | Cc1ccc(NC(=S)Nc2ccc(OC[C@@]3(C)Cn4cc([N+](=O)[O-])nc4O3)cc2)cc1 |  | 0.83 µg/mL (≈ 1.89 µM) |  | 
18 | C[C@]1(COc2ccc(NC(=O)Nc3ccc(OC(F)(F)F)cc3)cc2)Cn2cc([N+](=O)[O-])nc2O1 |  | 0.67 µg/mL (≈ 1.36 µM) |  | 
19 | C[C@]1(COc2ccc(S(=O)(=O)N3CCN(C(=O)c4ccccc4)CC3)cc2)Cn2cc([N+](=O)[O-])nc2O1 |  | 4 µg/mL (≈ 7.58 µM) |  | 
20 | Cc1ccc(NC(=O)Nc2ccc(OC[C@@]3(C)Cn4cc([N+](=O)[O-])nc4O3)cc2)cc1 |  | 0.21 µg/mL (≈ 0.496 µM) | < 1 µg/mL | 
21 | COc1ccc(NC(=O)Nc2ccc(OC[C@@]3(C)Cn4cc([N+](=O)[O-])nc4O3)cc2)cc1 |  | 2 µg/mL (≈ 4.55 µM) |  | 
22 | CC(C)(C)OC(=O)Nc1ccc(OC[C@@]2(C)Cn3cc([N+](=O)[O-])nc3O2)cc1 |  | 1.34 µg/mL (≈ 3.43 µM) |  | 
23 | COc1ccc(NC(=S)Nc2ccc(OC[C@@]3(C)Cn4cc([N+](=O)[O-])nc4O3)cc2)cc1 | > 8 µg/mL | 0.5 µg/mL (≈ 1.1 µM) | 8.66 µg/mL (≈ 19 µM) | CC50 at 24 h [2]: > 20 µg/mL; selectivity ratio [5]: > 80
24 | CCc1ccc(NC(=O)Nc2ccc(OC[C@@]3(C)Cn4cc([N+](=O)[O-])nc4O3)cc2)cc1 |  | 0.5 µg/mL (≈ 1.14 µM) | < 1 µg/mL | 
25 | C[C@]1(COc2ccc(S(=O)(=O)N3CCOCC3)cc2)Cn2cc([N+](=O)[O-])nc2O1 | 1.34 µg/mL (≈ 3.16 µM) | 0.37 µg/mL (≈ 0.872 µM) | 20 µg/mL (≈ 47.1 µM) | Activity [6]: Non-toxic; Tmax [7]: 0.5 h; Cmax [8]: 640 ng/mL; solubility at 4 h [9]: 20 µg/mL (≈ 47.1 µM); solubility at 4 h [10]: 20 µg/mL (≈ 47.1 µM); half-life [11]: 1.99 h; CC50 at 24 h [2]: > 20 µg/mL; solubility at 4 h [12]: 20 µg/mL (≈ 47.1 µM); selectivity ratio [5]: > 40; AUC(0-t) [13]: 879 ng·h/mL; Activity [14]: 1.28 log10CFU; CL/F [15]: 75.2 mL/min/kg; Activity [16]: Non-toxic; Vd [17]: 12.97 L/kg; Activity [18]: Non-toxic; remaining at 0.5 h [19]: 99.3%
26 | C[C@]1(COc2ccc(N3CCN(S(=O)(=O)c4ccc(C(F)(F)F)cc4)CC3)cc2)Cn2cc([N+](=O)[O-])nc2O1 |  | 0.25 µg/mL (≈ 0.44 µM) | < 1 µg/mL | 
27 | Cc1ccccc1NC(=O)Nc1ccc(OC[C@@]2(C)Cn3cc([N+](=O)[O-])nc3O2)cc1 |  | 1 µg/mL (≈ 2.36 µM) |  | 
28 | C[C@]1(COc2ccc(N3CCN(S(=O)(=O)c4ccc(F)cc4)CC3)cc2)Cn2cc([N+](=O)[O-])nc2O1 | > 8 µg/mL | 0.06 µg/mL (≈ 0.116 µM) | 8.33 µg/mL (≈ 16.1 µM) | CC50 at 24 h [2]: > 20 µg/mL; selectivity ratio [5]: > 333
29 | C[C@]1(COc2ccc(-n3cc(COc4ccc(OC(F)(F)F)cc4)nn3)cc2)Cn2cc([N+](=O)[O-])nc2O1 | 4 µg/mL (≈ 7.51 µM) | 0.12 µg/mL (≈ 0.225 µM) | < 1 µg/mL | Activity [6]: Non-toxic; Tmax [7]: 2 h; Cmax [8]: 540 ng/mL; solubility at 4 h [9]: < 1 µg/mL; solubility at 4 h [10]: < 1 µg/mL; t1/2 [20]: 4.01 h; CC50 at 24 h [2]: > 20 µg/mL; solubility at 4 h [12]: < 1 µg/mL; selectivity ratio [5]: > 166; AUCt [21]: 7428 ng·h/mL; Activity [16]: Non-toxic; Vd [17]: 0.377 L/kg; Activity [18]: Non-toxic; remaining at 0.5 h [19]: 90.8%
30 | C[C@]1(COc2ccc(S(=O)(=O)N3CCCCC3)cc2)Cn2cc([N+](=O)[O-])nc2O1 | 10.7 µg/mL (≈ 25.3 µM) | 0.5 µg/mL (≈ 1.18 µM) | 13.3 µg/mL (≈ 31.6 µM) | CC50 at 24 h [2]: > 20 µg/mL; selectivity ratio [5]: > 40
31 | COc1c(N2CCNC(C)C2)c(F)cc2c(=O)c(C(=O)O)cn(C3CC3)c12 (configuration not stated) [GATIFLOXACIN] | 1 µg/mL (≈ 2.66 µM) |  |  | 
32 | CO[C@H]1/C=C/O[C@@]2(C)Oc3c(C)c(O)c4c(O)c(c(/C=N/N5CCN(C)CC5)c(O)c4c3C2=O)NC(=O)/C(C)=C\C=C\[C@H](C)[C@H](O)[C@@H](C)[C@@H](O)[C@@H](C)[C@H](OC(C)=O)[C@@H]1C [RIFAMPIN] | 2 µg/mL (≈ 2.43 µM) | 0.06 µg/mL (≈ 0.0729 µM) |  | 
